Assay results from PubChem BioAssay (NCI).
Values joined by “and” are separate entries in the source; they are usually repeats but may differ in a detail not shown here. Equal values may be shown once.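 Tested at 5 concentrations; 48 h exposure; 96-well plates; endpoints linearly interpolated, else capped at highest concentration. Here, GI50 denotes the concentration required for 50% inhibition of growth. TGI marks complete inhibition of growth.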

Experiments:
Assay in all cases: NCI anticancer screen, dose series, 48 h
HL-60(TB) leukemia = test system: HL-60(TB) leukemia
TK-10 renal = test system: TK-10 renal
DU-145 prostate = test system: DU-145 prostate
NCI-H226 lung = test system: NCI-H226 lung
HCT-15 colon = test system: HCT-15 colon
MCF7 breast = test system: MCF7 breast
OVCAR-3 ovarian = test system: OVCAR-3 ovarian
SNB-75 CNS = test system: SNB-75 CNS
SK-OV-3 ovarian = test system: SK-OV-3 ovarian
SN12C renal = test system: SN12C renal

SMILES	GI50 (HL-60(TB) leukemia) [µM]	TGI (HL-60(TB) leukemia) [µM]	GI50 (TK-10 renal)	TGI (TK-10 renal) [µM]	GI50 (DU-145 prostate) [µM]	TGI (DU-145 prostate) [µM]	GI50 (NCI-H226 lung) [µM]	TGI (NCI-H226 lung) [µM]	GI50 (HCT-15 colon)	TGI (HCT-15 colon) [µM]	GI50 (MCF7 breast) [µM]	TGI (MCF7 breast) [µM]	GI50 (OVCAR-3 ovarian)	TGI (OVCAR-3 ovarian) [µM]	GI50 (SNB-75 CNS) [µM]	TGI (SNB-75 CNS) [µM]	GI50 (SK-OV-3 ovarian) [µM]	TGI (SK-OV-3 ovarian) [µM]	GI50 (SN12C renal) [µM]	TGI (SN12C renal) [µM]
CNC(=O)c1c(NC(=O)c2ccc(C(F)(F)F)cc2)sc2c1CCC(=O)C2	0.363	2.09	0.815 µM	21.2	4.18	> 100	1.82	5.35	0.239 µM	1.76	0.837	4.13	0.812 µM	3.29	0.714	3.95	2.26	7.2	0.69	24.1
CCc1c2c(nc3cc4c(c(N)c13)OCO4)-c1cc3c(c(=O)n1C2)COC(=O)[C@]3(O)CC	< 0.001		3.03 µM and 0.483 µM	6.25	< 0.001	> 100	< 0.001	0.202	0.277 µM and 0.178 µM	> 100	< 0.001	0.0298	0.278 µM and 0.264 µM	> 100	< 0.001		< 0.001		< 0.001	> 100
Cc1ccc(S(=O)(=O)Oc2ccc([N+](=O)[O-])cc2[N+](=O)[O-])cc1	11.4	38.3	4.54 µM	17.4	11.4	23.5	10.6	43.6	3.61 µM	17.9	4.13	23.2	3.24 µM	11.5	6.77	21.3	9.4	91.3	3.78	17.3
Cc1cc(C(=O)Nc2nc3cccc(Cl)c3n2[C@@H]2CCCCN(C(=O)/C=C/CN(C)C)C2)ccn1	17	38.3	1.07 µM	16.4	6.19	45.2	16.3	32.1	4.42 µM	19.7	4.95	20.3	4.08 µM	18.4	5.63	19	0.0792	9.03	3.51	22.2
CN[C@@H](C)C(=O)N[C@H]1CN(C(=O)CC(C)C)CC[C@H]2CC[C@@H](C(=O)NC(c3ccccc3)c3ccccc3)N2C1=O	29.1	> 100	> 100 µM	> 100	> 100	> 100	> 100	> 100	> 100 µM	> 100	> 100	> 100	> 89.7 µM	> 100	15.7	> 100	0.156	1.04	> 100	> 100
COc1cc2c(F)nccc2cc1C(=O)N[C@@H](c1ccc(F)c(Cl)c1)[C@@H]1C[C@@H](O)CN1	2.11	5.61	0.279 µM	14.1	6.84	24	5.99	24.4	0.838 µM	16.4	0.575	12.1	8.43 µM	24.7	0.074	1.51	0.268	13.7	8.08	22.2
C#CCSc1n[nH]c(-c2ccco2)n1		> 100		> 100		> 100		> 100		> 100		> 100		> 100		> 100		> 100		> 100
NC(=O)C1c2ccccc2C=Cc2ccccc21	> 100	> 100	> 100 µM	> 100	> 100	> 100	> 100	> 100	> 100 µM	> 100	> 100	> 100	> 100 µM	> 100	> 100	> 100	> 100	> 100	> 100	> 100
CCCCCCCCCCCCNC(=O)[C@H]1CSC(c2cc3ccccc3s2)N1 (some centres not stated)	0.154	8.69	1.27 µM	4.88	1.21	4.19	3	7.88	3.69 µM	8.17	4.02	9.15	3.79 µM	9.5	0.599	1.12	4.16	8.38	2.8	7.24
COc1cccc(Cn2c(-c3nonc3N)nc3ccccc32)c1	0.298	13.8	0.728 µM	52.4	0.591	> 100	1.16	> 22	0.399 µM	> 100	0.383	> 100	0.354 µM	3.62	0.225	2.02	0.414	25.9	0.751	> 100
C/C1=C/C(=O)O[C@@H]2C[C@@H](CC[C@H](C)/C=C\C=C\CC1)O[C@@](O)([C@@H]1CSC(=O)N1CO)C2	0.253	18.8	0.0921 µM	0.341	0.239	> 57.3	0.104	> 100	0.0689 µM	> 91.4	13.1	37.7	0.122 µM	0.512	0.0151	0.0523	0.0504	0.404	0.0485	> 57.4
Cc1nc2ccccn2c1NC(=O)NNC(=S)Nc1ccc(Br)cc1	24.4	> 100	74.1 µM	> 100	45.9	> 100	38.4	> 100	28.8 µM	> 100	29.4	> 100	38.6 µM	94.8	26.1	67.5	33	82.8	35.9	> 100
COc1ccc(-c2nsc3c2NC(=O)CC3c2ccc(F)cc2)cc1 (configuration not stated)	0.598	> 21.1	6.88 µM	> 100	5.31	> 100	8.67	> 100	2.16 µM	> 100	3.29	> 100	3.79 µM	> 100	2.35	15.7	4.59	> 100	> 23.4	> 100
